Measured values published in PMC4774911, “Biochemical Screening of Five Protein Kinases from Plasmodium falciparum against 14,000 Cell-Active Compounds” (PLoS ONE, 2016).
Read-outs that look alike come from different tables or passages of the source.

Key:
ABL1 = ABL1 (Homo sapiens, UniProt P00519)
PKG = PKG (Plasmodium falciparum, UniProt Q8I719); assay: PKG IC50 (supplementary data file); assay type: biochemical
Description: Supplement pone.0149996.s003.xls, sheet "combined_1_sorted"

3D7 PFLDH [1] = test system: 3D7 PFLDH; set-up: method as in F.J. Gamo et al., Nature 2010; details: downloaded from ChEMBL ref F.J. Gamo et al., Nature 2010; cited from earlier work
DD2 = test system: DD2; set-up: method as in F.J. Gamo et al., Nature 2010; details: P. falciparum Dd2; downloaded from ChEMBL ref F.J. Gamo et al., Nature 2010; cited from earlier work
3D7 PFLDH [2] = test system: 3D7 PFLDH; set-up: method as in ChEMBL; details: ref ChEMBL; cited from earlier work

ABL1, sequence (P00519 whole entry): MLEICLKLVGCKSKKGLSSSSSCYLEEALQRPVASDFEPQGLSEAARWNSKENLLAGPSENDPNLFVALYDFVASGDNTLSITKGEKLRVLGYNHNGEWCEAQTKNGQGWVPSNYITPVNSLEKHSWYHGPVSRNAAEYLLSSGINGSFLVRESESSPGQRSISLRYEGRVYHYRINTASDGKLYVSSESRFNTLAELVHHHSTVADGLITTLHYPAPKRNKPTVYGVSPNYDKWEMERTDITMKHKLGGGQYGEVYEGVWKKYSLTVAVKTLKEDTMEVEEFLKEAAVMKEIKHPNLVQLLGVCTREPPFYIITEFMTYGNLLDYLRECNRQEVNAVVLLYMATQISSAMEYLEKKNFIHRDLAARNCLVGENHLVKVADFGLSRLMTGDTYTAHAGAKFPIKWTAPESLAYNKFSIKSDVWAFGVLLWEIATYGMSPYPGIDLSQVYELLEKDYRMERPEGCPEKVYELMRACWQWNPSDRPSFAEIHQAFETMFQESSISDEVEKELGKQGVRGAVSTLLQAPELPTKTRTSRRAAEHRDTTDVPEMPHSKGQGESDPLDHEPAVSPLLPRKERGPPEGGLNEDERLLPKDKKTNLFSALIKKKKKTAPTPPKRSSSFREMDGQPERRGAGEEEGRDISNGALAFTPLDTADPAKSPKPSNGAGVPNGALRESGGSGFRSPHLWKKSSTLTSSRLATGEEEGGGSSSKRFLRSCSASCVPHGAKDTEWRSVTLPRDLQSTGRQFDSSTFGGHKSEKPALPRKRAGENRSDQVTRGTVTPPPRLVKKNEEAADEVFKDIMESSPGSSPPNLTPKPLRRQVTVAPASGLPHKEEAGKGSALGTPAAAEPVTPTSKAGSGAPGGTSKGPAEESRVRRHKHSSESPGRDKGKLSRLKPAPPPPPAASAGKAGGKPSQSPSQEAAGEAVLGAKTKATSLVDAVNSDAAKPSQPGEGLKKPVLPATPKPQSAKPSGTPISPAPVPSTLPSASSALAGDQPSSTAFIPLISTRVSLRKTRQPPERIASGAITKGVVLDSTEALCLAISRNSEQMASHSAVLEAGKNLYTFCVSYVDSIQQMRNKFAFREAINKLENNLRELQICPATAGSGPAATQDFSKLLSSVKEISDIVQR
PKG, sequence (Q8I719 whole entry): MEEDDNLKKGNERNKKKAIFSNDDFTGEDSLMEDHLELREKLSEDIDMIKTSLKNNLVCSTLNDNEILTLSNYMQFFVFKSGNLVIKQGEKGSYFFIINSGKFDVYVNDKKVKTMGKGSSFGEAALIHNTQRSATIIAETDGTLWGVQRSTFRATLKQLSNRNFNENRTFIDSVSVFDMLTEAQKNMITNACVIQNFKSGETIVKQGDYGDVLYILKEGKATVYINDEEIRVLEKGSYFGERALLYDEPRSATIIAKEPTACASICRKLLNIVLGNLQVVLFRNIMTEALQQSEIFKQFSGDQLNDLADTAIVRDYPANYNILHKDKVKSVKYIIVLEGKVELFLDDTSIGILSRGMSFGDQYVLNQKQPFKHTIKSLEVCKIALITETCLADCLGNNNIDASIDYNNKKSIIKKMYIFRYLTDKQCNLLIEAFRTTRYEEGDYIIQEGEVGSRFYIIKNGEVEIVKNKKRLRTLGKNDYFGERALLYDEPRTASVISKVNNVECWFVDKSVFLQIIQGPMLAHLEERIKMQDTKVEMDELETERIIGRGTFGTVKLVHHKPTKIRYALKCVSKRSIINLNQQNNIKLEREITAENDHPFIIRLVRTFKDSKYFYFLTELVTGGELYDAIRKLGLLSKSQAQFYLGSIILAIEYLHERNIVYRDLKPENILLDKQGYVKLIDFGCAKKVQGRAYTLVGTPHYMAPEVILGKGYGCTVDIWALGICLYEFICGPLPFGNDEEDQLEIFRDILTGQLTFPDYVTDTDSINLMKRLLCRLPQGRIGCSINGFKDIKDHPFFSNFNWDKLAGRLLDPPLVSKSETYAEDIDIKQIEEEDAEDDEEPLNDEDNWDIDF

CN1CCN(c2ccc(Nc3ncc(C#N)c(Nc4ccccc4C(N)=O)n3)cc2)CC1.Cl [TCMDC-134116]
IC50 (ABL1): 130 nM | IC50 (PKG): 103 nM

Cl.NCC1(c2nc(-c3ccc(Cl)c(O)c3)c(-c3ccncc3)[nH]2)CCCCC1 [TCMDC-141154]
PCT_INHIB_3D7_PFLDH (3D7 PFLDH [1]): 0 | PCT_INHB_DD2 (DD2): 98

CN(C)CC(O)COc1ccc(Nc2ncc([N+](=O)[O-])c(Nc3ccccc3O)n2)cc1.O=C(O)C(F)(F)F (centres unmarked) [TCMDC-141399]
PCT_INHIB_3D7_PFLDH (3D7 PFLDH [2]): 0
